Drawing on ChEMBL document CHEMBL1130597, “Design of a high affinity peptidomimetic opioid agonist from peptide pharmacophore models” (Bioorg Med Chem Lett, 1998), this text covers EC50 for one compound.

The target in this assay is Mu-type opioid receptor (Rattus norvegicus, UniProt P33535). As to the kind of experiment: Compound was tested for its ability to stimulate [35S]GTP-gamma-S, binding to membranes from C6 glioma cells stably expressing rat mu opioid receptor. The assay is classed as functional, cell membranes. On the technique in general: GTPγS resists hydrolysis and so accumulates on activated G proteins.
Chain of Mu-type opioid receptor (P33535 whole entry): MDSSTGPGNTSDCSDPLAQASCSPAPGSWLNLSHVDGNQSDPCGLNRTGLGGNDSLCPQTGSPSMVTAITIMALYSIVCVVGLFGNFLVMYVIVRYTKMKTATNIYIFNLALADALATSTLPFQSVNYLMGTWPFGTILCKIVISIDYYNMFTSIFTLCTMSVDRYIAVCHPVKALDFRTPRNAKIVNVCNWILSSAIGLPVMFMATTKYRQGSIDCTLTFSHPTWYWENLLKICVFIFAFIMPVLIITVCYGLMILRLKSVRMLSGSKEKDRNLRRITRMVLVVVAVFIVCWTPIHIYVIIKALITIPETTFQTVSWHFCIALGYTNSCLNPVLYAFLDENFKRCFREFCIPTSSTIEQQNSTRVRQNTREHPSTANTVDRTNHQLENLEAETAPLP

The compound `CC1(C)SSC[C@@H](NC(=O)[C@@H](N)Cc2ccc(O)cc2)C(=O)N[C@@H](Cc2ccccc2)C(=O)N[C@@H]1C(N)=O` gave a 50% effective concentration (EC50) of 0.0182 µM.

The term EC50 denotes the concentration that produces a half-maximal response. The low end stands for an effect from little substance, the high end for a need for much substance.
